From patent US20240252596A1, “Injectable Polymeric Biopharmaceutical Formulations” (The Board of Trustees of the Leland Stanford Junior …, priority 2023, published 2024)

Experiments:
[1] = Syringe force measurements of liquid carriers alone after 48 h; assay type: physicochemical; details: media alone in syringe, after 48 h at ambient temperature
Experimental: To investigate the syringe force profile for various liquid carriers in syringes (e.g., break loose (initiating) force, and the glide (sustaining) force), the following media alone were loaded into syringes in duplicate (n=2): • 1. triacetin (100%) • 2. benzyl benzoate (100%) • 3. Miglyol 810 (100%) • 4. Miglyol 840 (100%) • 5. benzyl alcohol (100%) • 6. ethyl oleate (100%).
The above syringes were stored for 48 h at ambient temperature, protected from light.
Syringe force measurements (n=2) were conducted on each media after 48 h.

[2] = Liquid carrier studies: suspension performance of BSA/MoNi (5%) microparticles at 460 mg/mL; details: for Suspension Performance: BSA/MoNi (5%) microparticles dispersed at 460 mg/mL in the media; for Additional comments (consistency on dispersion, stability of suspension): BSA/MoNi (5%) microparticles dispersed in the media; for time until suspension hardens: sealed in a glass container with parafilm
Experimental: (§1) To investigate the liquid carrier component of the subject compositions, a number of solvents were tested for their suspension performance characteristics.

[3] = Parameters of liquid carriers (density, viscosity, vapor pressure); details: liquid carrier
Experimental: as §1

[4] = Syringe force measurements of liquid carriers alone after 48 h; assay type: physicochemical; details: vehicle
SKH1-E mice = assay: Tolerability screen: subcutaneous injection of solvent or solvent blend, adverse skin reaction; assay type: in vivo; details: 10 uL s.c.
Experimental: SKH1-E mice were subcutaneously administered 10 μL of solvent or solvent blend with triacetin (no protein). […] Volume of solvent injected was 2× the solvent volume that would be administered to a mouse in a paste.
Degree of adverse skin reaction was quantified using the grading scale of Table 5: […]

Row | SMILES | Break loose (N), n = 2 [1] | Glide force (N), n = 2 [1] | Suspension Performance [2] | Additional comments (consistency on dispersion, stability of suspension) [2] | Density [3] | Vapor pressure [3] | Viscosity (@25 C.) [3] | Viscosity (cp)* [4] | time until suspension hardens [2] | skin reaction (SKH1-E mice)
1 | C[S+](C)[O-] [Dimethyl sulfoxide (DMSO), Dimethyl sulfoxide] | – | – | – | quickly hardens into a flaky | 1.09 g/mL | 80 Pa | 2.0 | – | paste (within 1 hour when sealed | –
2 | CCO [Ethyl alcohol] | – | – | – | Clumps immediately, cannot | 0.79 g/mL | – | 1.07 | – | – | –
3 | CN1CCCC1=O [N-methyl-2-pyrrolidone (NMP), N-methyl-2-pyrrolidone] | – | – | +/− | Forms very low viscosity | 1.03 g/mL | 45 Pa | 1.89 | – | – | –
4 | CC(O)CO (stereo not drawn) [Propylene glycol (PG), Propylene glycol] | – | – | – | quickly hardens into a sticky | 1.03 g/mL | 11 Pa | 48.6 | – | rock (within a couple hours | –

The next lines start with results.

Row | Break loose (N), n = 2 [1] | Glide force (N), n = 2 [1] | Suspension Performance [2] | Additional comments (consistency on dispersion, stability of suspension) [2] | Density [3] | Vapor pressure [3] | Viscosity (@25 C.) [3] | Viscosity (cp)* [4] | time until suspension hardens [2] | SMILES | skin reaction (SKH1-E mice)
5 | 4.8 N | 2.5 N | + | Forms very low viscosity | 1.04 g/mL | 12 Pa | 5.4 | 5 cp | – | OCc1ccccc1 [Benzyl Alcohol (BA), Benzyl Alcohol] | –
6 | 5.7 N | 3.5 N | + | Forms a low viscosity solution | 1.11 g/mL | – | 8.29 | 8-9 cp | – | O=C(OCc1ccccc1)c1ccccc1 [Benzyl benzoate] | –
7 | 8.1 N | 6.1 N | ++ | A very good non-solvent. Shows | 1.16 g/mL | 0.267 Pa | 23 | 23 cp | – | CC(=O)OCC(COC(C)=O)OC(C)=O [Triacetin] | no skin swelling or redness
8 | 4.2 N | 3.2 N | – | – | – | – | – | 6 cp | – | CCCCCCCC/C=C\CCCCCCCC(=O)OCC [ethyl oleate] | –
